Measurements: patent US4652581A, “Tetrahydroindole derivative as medicament for cerebral apoplexy” (Grelan Pharmaceutical Co., Ltd., priority 1983, dated 1987)
Where two headings read alike, the source gives them in different places.

What was measured:
[1] = system: cerebral apoplexy (stroke-prone spontaneously hypertensive rats); assay: Effect against cerebral apoplexy in NaCl-loaded stroke-prone spontaneously hypertensive rats (Test Example 2); format: in vivo
From the text: Stroke-prone spontaneously hypertensive rats [K. Okamoto et al., Circulation Res. suppl. 34 & 35, 143 (1974)]of 10 weeks aged were fed, in conventional manner, with a 1 weight % aqueous solution of sodium chloride as drinking water [H. Ikeda et al., Europ. J. Pharmacol. 53, 173 (1979)]being employed.
Animals were subjected to periodical observation, three times a day, until the symptom of cerebral apoplexy was manifested in all the animals of the control group. The difference between the control group and the test group in the ranking of the symtoms of cerebral apoplexy manifested was subjected to rank sum test.
In the test group, each of the animals was orally treated every day with ISI dissolved in 1% gum-arabica solution so that the concentration may become 0.06 weight % at a dose of 0.5 ml/100 g body weight twice a day, starting with the sodium chloride loading. In the control group, each of the animals was treated with 1% gum-arabica solution at a dose of 0.5 ml/100 g body weight in a manner similar to that in the test group.
The animals in which the symptom of apoplexy was manifested, after being anesthetized, was treated with intravenous injection of 1% Evans Blue (dosage: 1 ml/kg). After sacrifice by bloodletting, hemorrhage and extravascular extravasation of the dye in the brain and the spinal cord was observed.
With paralysis of the limbs, stereotyped behaviour, an extreme loss of
those animals were counted as those suffering from C.A.: Excitement,
Hyperirritability, Depression, Epileptic symptom, Hemiplegia, Sudden

[2] = Acute toxicity (LD50 in mice); conditions: mouse, in vivo
[3] = system: hemorrhagic infarction (rat cerebral infarction model); assay: Inhibition of hemorrhagic infarction in cerebral infarction model, ISI orally administered (Test Example 1B); format: in vivo, Sprague Dowley male rats; conditions: oral, twice daily
Experimental: (§1) (A) A cerebral infarction model was constructed by the following procedure. The bilateral common carotid arteries of Sprague Dowley male rats (body weights 300 to 350 g) in which one of the vertebral arteries was occluded by electrocauterization in accordance with the method of W. Pulsinelli et al (Stroke 10, 267, 1979) were uniformly occluded and made repatent, using clamps, at an interval of 1 hour for the first cycle and thereafter at 30-minute intervals for a total of 4 cycles.
The isolated brains were fixed in 10% formalin. For the assessment of hemorrhagic infarction, paraffin-embedded specimens prepared from three different sections passing through the mid-point between the anterior portion of the frontal lobe and the optic chiasm, the optic chiasm and the posterior portion of the mamillary body were used after H.E. stain.
(B) In the system using the above-mentioned cerebral infarction model, 0.25 ml/100 g body weight of suspension of the test drug ISI in 5% sodium alginate was orally administrated (dose of ISI: 30 mg/kg). To control animals, 0.25 ml/100 g body weight of 5% sodium alginate was orally administered. The administration schedule was twice daily for both groups.
The brains submitted to the study were subjected to the same treatment as above, and assessments were made on paraffin-embedded specimens.

[4] = system: hemorrhagic infarction (rat cerebral infarction model); assay: Inhibition of hemorrhagic infarction in cerebral infarction model, ISI injection (Test Example 1A); format: in vivo, Sprague Dowley male rats; conditions: intraperitoneal
Experimental: as §1
After the final establishment of repatency in this test model and on the second day and onwards, 1 ml/100 g body weight of Glyceol ® Injection [a preparation containing 10 weight % of glycerol, the trademark of Chugai Pharmaceutical Co., Ltd., Japan] was intraperitoneally administered twice daily. The test drug ISI was dissolved in Glyceol ® Injection to a concentration of 0.08 weight % and administered in the same manner as Glyceol ® Injection.
In a disease model such as the one used in this experiment, death of animals occurs in many cases as an infarction leads to cerebral edema which compresses the brain stem. Therefore, for the purpose of preventing death due to this cause and ensuring a smooth performance of the experiment, the animals were treated with Glyceol ® Injection which has a relieving effect on cerebral edema.
The isolated brains were fixed in 10% formalin. […]

CC(C)N1CC(O)C2=CC(=NNC(N)=O)C(=O)C=C21 (centres unmarked) [ISI, 1-isopropyl-3-hydroxy-5-semicarbazono-6-oxo-2,3,5,6-tetrahydroindole]
Number of animals suffering from C.A., Total ([1]; ISI 3.0 mg/kg, oral twice a day, total, days 20-42 after NaCl loading, control 10/10): 5/10 | Number of animals suffering from C.A. ([1]; ISI 3.0 mg/kg, 20 days after NaCl loading, control 0): 1 | Number of animals suffering from C.A. ([1]; ISI 3.0 mg/kg, 21 days after NaCl loading, control 1): 0 | Number of animals suffering from C.A. ([1]; ISI 3.0 mg/kg, 23 days after NaCl loading, control 1): 0 | Number of animals suffering from C.A. ([1]; ISI 3.0 mg/kg, 26 days after NaCl loading, control 1): 0 | Number of animals suffering from C.A. ([1]; ISI 3.0 mg/kg, 32 days after NaCl loading, control 1): 0 | Number of animals suffering from C.A. ([1]; ISI 3.0 mg/kg, 33 days after NaCl loading, control 1): 1 | Number of animals suffering from C.A. ([1]; ISI 3.0 mg/kg, 34 days after NaCl loading, control 1): 0 | Number of animals suffering from C.A. ([1]; ISI 3.0 mg/kg, 37 days after NaCl loading, control 0): 2 | Number of animals suffering from C.A. ([1]; ISI 3.0 mg/kg, 39 days after NaCl loading, control 1): 0 | Number of animals suffering from C.A. ([1]; ISI 3.0 mg/kg, 40 days after NaCl loading, control 1): 0 | Number of animals suffering from C.A. ([1]; ISI 3.0 mg/kg, 41 days after NaCl loading, control 0): 1 | Number of animals suffering from C.A. ([1]; ISI 3.0 mg/kg, 42 days after NaCl loading, control 2): 0 | effect of ISI against cerebral apoplexy (significance versus control) ([1]; oral ISI twice a day, Mann-Whitrey's U-test): 5% significant difference | LD50 ([2]; intravenous, read-out: Acute toxicity LD50, intravenous): 350 mg/kg | LD50 ([2]; oral, read-out: Acute toxicity LD50, oral): ≥ 10000 mg/kg | Number of cases of hemorrhagic infarction ([3]; 30 mg/kg in 5% sodium alginate, control (sodium alginate) 18/43): 9/41 | inhibitory effect on cerebral infarction (significance versus control) ([3]; 30 mg/kg, vs control group): inhibitory effect on cerebral infarction was obtained in the ISI group at the significance level of 5% | Number of cases of hemorrhagic infarction ([4]; 0.08% ISI in Glyceol injection, 1 ml/100 g, twice daily, up to 7 days, control (Glyceol injection) 6/20): 1/19 | inhibitory effect on hemorrhagic infarction (significance versus control) ([4]; ISI in Glyceol injection vs control group): inhibitory effect on hemorrhagic infarction was obtained in the ISI group at the significance level of 5%
